Test results as given in patent US20250034216A1, “STEREOSELECTIVE COVALENT LIGANDS FOR ONCOGENIC AND IMMUNOLOGICAL PROTEINS” (The Scripps Research Institute, priority 2021, published 2025).

Experiments:
ESRP1_C551 = target: T1, ESRP1_C551 (Homo sapiens, UniProt Q6NXG1); assay: IA-DTB cysteine engagement; type: binding; conditions: 22Rv1 cells, 20 μM probe, 1 h, relative to DMSO
T1 construct: endogenous in cells; host or cells: 22Rv1
T1 sequence (Q6NXG1 1-681): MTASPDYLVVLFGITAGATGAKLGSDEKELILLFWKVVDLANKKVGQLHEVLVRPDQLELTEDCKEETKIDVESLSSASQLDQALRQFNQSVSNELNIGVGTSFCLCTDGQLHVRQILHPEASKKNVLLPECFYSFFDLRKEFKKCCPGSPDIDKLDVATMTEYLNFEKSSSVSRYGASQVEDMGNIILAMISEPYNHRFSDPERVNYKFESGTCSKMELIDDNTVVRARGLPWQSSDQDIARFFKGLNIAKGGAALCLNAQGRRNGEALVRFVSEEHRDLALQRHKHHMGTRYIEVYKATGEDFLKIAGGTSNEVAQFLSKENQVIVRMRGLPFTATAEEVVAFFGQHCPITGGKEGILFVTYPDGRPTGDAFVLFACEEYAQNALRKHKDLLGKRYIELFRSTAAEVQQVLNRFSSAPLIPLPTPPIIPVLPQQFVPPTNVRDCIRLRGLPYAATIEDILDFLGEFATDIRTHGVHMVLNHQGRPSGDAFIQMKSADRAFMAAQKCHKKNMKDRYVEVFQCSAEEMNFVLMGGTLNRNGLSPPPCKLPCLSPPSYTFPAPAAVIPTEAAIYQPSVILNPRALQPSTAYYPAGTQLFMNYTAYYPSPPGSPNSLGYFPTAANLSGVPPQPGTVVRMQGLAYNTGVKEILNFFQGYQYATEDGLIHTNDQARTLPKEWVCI
Method in brief: (§1)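 Competitive chemoproteomics: residual cysteine reactivity toward IA-DTB in lysates from probe-treated cells was quantified by TMT reporter ions relative to DMSO-treated controls. Replicates sharing cell line, probe, concentration and duration were averaged.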

NT5DC2_C504 = target: T2, NT5DC2_C504 (Homo sapiens, UniProt Q9H857); assay: IA-DTB cysteine engagement; type: binding; conditions: 22Rv1 cells, 20 μM probe, 1 h, relative to DMSO
T2 construct: endogenous in cells; host or cells: 22Rv1
T2 sequence (Q9H857 1-520): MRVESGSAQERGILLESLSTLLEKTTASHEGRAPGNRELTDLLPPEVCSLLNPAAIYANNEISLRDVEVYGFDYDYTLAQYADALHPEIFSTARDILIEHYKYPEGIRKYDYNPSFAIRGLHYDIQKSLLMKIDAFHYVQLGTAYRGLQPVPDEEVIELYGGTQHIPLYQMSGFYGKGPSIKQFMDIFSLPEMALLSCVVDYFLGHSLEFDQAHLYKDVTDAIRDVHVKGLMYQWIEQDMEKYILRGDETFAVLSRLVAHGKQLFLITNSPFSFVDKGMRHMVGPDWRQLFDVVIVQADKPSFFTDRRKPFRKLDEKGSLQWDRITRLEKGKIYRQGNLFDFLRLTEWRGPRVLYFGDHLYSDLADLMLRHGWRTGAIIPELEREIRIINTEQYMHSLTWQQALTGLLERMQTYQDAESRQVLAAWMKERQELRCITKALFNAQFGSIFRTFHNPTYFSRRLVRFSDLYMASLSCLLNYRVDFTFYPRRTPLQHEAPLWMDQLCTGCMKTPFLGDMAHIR
Method in brief: as §1

C=CC(=O)N1C[C@H](c2ccc(Br)cc2)[C@H]1C(=O)Nc1cccc2cccnc12 [MY-3A, (2S,3S)-1-acryloyl-3-(4-bromophenyl)-N-(quinolin-8-yl)azetidine-2-carboxamide]
% engagement ESRP1_C551 (ESRP1_C551): 6.5%
% engagement NT5DC2_C504 (NT5DC2_C504): 54.5%

C=CC(=O)N1C[C@H](c2ccc(Br)cc2)[C@@H]1C(=O)Nc1cccc2cccnc12 [MY-1B, (2R,3S)-1-acryloyl-3-(4-bromophenyl)-N-(quinolin-8-yl)azetidine-2-carboxamide]
% engagement ESRP1_C551 (ESRP1_C551): 73.5%
% engagement NT5DC2_C504 (NT5DC2_C504): 75%

C=CC(=O)N1C[C@H](c2ccc(Br)cc2)[C@H]1C(=O)Nc1cccc2cccnc12 [MY-3B, (2S,3S)-1-acryloyl-3-(4-bromophenyl)-N-(quinolin-8-yl)azetidine-2-carboxamide]
% engagement ESRP1_C551 (ESRP1_C551): 69%
% engagement NT5DC2_C504 (NT5DC2_C504): 59%

C=CC(=O)N1C[C@@H](c2ccc(Br)cc2)[C@H]1C(=O)Nc1cccc2cccnc12 [MY-1A, (2S,3R)-1-acryloyl-3-(4-bromophenyl)-N-(quinolin-8-yl)azetidine-2-carboxamide]
% engagement ESRP1_C551 (ESRP1_C551): 51%
% engagement NT5DC2_C504 (NT5DC2_C504): 85.5%
